Reference: patent US4812573A, “Pharmaceutically active compounds” (SmithKline & French Laboratories, Ltd., priority 1986, dated 1989)
Where a name gives a salt, the structure may show the parent alone.

Assays:
TXA2 receptors = molecular target: T1, TXA2 receptors (Homo sapiens, UniProt P21731); assay: human platelet binding assay ([^125 I]PTA-OH receptor ligand); conditions: 50% inhibition of specific [^125 I]PTA-OH binding
T1 construct: endogenous in cells; host or cells: human platelets
T1 sequence (P21731 1-343): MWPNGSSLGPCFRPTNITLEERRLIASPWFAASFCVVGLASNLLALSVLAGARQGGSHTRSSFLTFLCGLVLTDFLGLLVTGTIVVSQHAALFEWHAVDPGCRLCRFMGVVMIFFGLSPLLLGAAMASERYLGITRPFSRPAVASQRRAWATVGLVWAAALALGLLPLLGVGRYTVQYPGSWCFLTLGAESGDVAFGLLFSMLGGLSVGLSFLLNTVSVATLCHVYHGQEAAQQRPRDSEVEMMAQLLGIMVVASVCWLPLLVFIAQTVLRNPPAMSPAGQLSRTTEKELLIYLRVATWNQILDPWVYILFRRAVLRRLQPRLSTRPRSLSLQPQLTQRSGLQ
Description: As indicated above, compounds of the formula (I) have biological activity that is indicative of an ability to antagonise TXA2 receptors. […] Exp. Ther., 1985, 235(3), 729-734 where [^125 I]PTA-OH was used as the receptor ligand. The IC50 values represent the concentration which produces a 50% inhibition of specific [^125 I]PTA-OH binding.

human washed platelets = assay: human platelet aggregation assay (submaximal U46619 induced aggregation); format: cell-based
Description: As indicated above, compounds of the formula (I) have biological activity that is indicative of an ability to antagonise TXA2 receptors.
(b) human platelet aggregation assay.
HUMAN PLATELET AGGREGATION ASSAY
The aggregation assay used human washed platelets and was based on that described by Born (Nature, 1962, vol. 194, 927-929). The assay determines a concentration of test compound which inhibits a submaximal U46619 induced aggregation by 50% (IC50). U46619 is the thromboxane A2 -agonist (9,11-dideoxy-11α,9α-epoxymethanoprostaglandin F2α).

O=C(O)CCN1CCc2ccc(S(=O)(=O)Nc3cccc(Cl)c3)cc2C1 [Example 1, 3-[7-(3-Chlorophenylsulphamoyl)-1,2,3,4-tetrahydroisoquinolin-2-yl]propionic acid]
IC50 (TXA2 receptors): 49.3 µM | IC50 (human washed platelets): 103 µM

O=C(O)CCCN1CCc2ccc(S(=O)(=O)Nc3cccc(Cl)c3)cc2C1 [Example 2, 4-[7-(3-Chlorophenylsulphamoyl)-1,2,3,4-tetrahydroisoquinolin-2-yl]butyric acid]
IC50 (TXA2 receptors): 1.02 µM | IC50 (human washed platelets): 9.3 µM

CCOC(=O)CCCCN1CCc2ccc(S(=O)(=O)Nc3cccc(Cl)c3)cc2C1 [Example 3a, ethyl-5-[7-(3-chlorophenylsulphamoyl)-1,2,3,4-tetrahydroisoquinolin-2-yl]valerate hydrochloride]
IC50 (TXA2 receptors): 3.1 µM

O=C(O)CCCCN1CCc2ccc(S(=O)(=O)Nc3cccc(Cl)c3)cc2C1 [Example 3b, 5-[7-(3-Chlorophenylsulphamoyl)-1,2,3,4-tetrahydroisoquinolin-2-yl]valeric acid]
IC50 (TXA2 receptors): 1.06 µM | IC50 (human washed platelets): 3.9 µM

O=C(O)CCCCCN1CCc2ccc(S(=O)(=O)Nc3cccc(Cl)c3)cc2C1 [Example 4, 6-[7-(3-Chlorophenylsulphamoyl)-1,2,3,4-tetrahydroisoquinolin-2-yl]hexanoicacid]
IC50 (TXA2 receptors): 3.8 µM | IC50 (human washed platelets): 34 µM

O=C(O)CCCN1CCc2ccc(S(=O)(=O)Nc3ccccc3)cc2C1 [Example 5, 4-(7-Phenylsulphamoyl-1,2,3,4-tetrahydroisoquinolin-2-yl)butyric acid]
IC50 (TXA2 receptors): 3.75 µM

O=C(O)CCCCN1CCc2ccc(S(=O)(=O)Nc3ccccc3)cc2C1 [Example 6, 5-(7-Phenylsulphamoyl-1,2,3,4-tetrahydroisoquinolin-2-yl)valeric acid]
IC50 (TXA2 receptors): 9.2 µM

O=C(O)CCCN1CCc2ccc(S(=O)(=O)Nc3cccc(C(F)(F)F)c3)cc2C1 [Example 7, 4-[7-(3-Trifluoromethylphenylsulphamoyl)-1,2,3,4-tetrahydroisoquinolin-2-yl]butyric acid]
IC50 (TXA2 receptors): 2.8 µM

O=C(O)C#CCN1CCc2ccc(S(=O)(=O)Nc3cccc(Cl)c3)cc2C1 [Example 8, Sodium 4-[7-(3-chlorophenylsulphamoyl)-1,2,3,4-tetrahydroisoquinolin-2-yl]but-2-ynoate]
IC50 (TXA2 receptors): 0.7 µM

O=C(O)CCCN1CCc2c(cccc2NS(=O)(=O)c2ccccc2)C1 [Example 9, 4-[5-(Phenylsulphonamido)-1,2,3,4-tetrahydroisoquinolin-2-yl]butyric acid hydrochloride]
IC50 (TXA2 receptors): 79 µM

O=C(O)CCCCN1CCc2c(cccc2NS(=O)(=O)c2ccccc2)C1 [Example 10, 5-[(5-Phenylsulphonamido)-1,2,3,4-tetrahydroisoquinolin-2-yl]valeric acid hydrochloride]
IC50 (TXA2 receptors): 134 µM

O=C(O)CCCN1CCc2cc(NS(=O)(=O)c3ccccc3)ccc2C1 [Example 11, 4-[6-Phenylsulphonamido-1,2,3,4-tetrahydroisoquinolin-2-yl]butyric acid]
IC50 (TXA2 receptors): 232 µM

O=C(O)CCCCN1CCc2ccc(NS(=O)(=O)c3ccccc3)cc2C1 [Example 12, 5-[7-Phenylsulphonamido-1,2,3,4-tetrahydroisoquiolin-2-yl]valeric acid]
IC50 (TXA2 receptors): 40.7 µM

O=C(O)CN1CCc2ccc(NS(=O)(=O)c3ccccc3)cc2C1 [Example 13, 2-[(7-Phenylsulphonamido)-1,2,3,4-tetrahydroisiquinolin-2-yl]-acetic acid hydrochloride]
IC50 (TXA2 receptors): 84 µM

CCCCC(C(=O)O)N1CCc2ccc(NS(=O)(=O)c3ccccc3)cc2C1 (centres unmarked) [Example 14, 2-[(7-Phenylsulphonamido)-1,2,3,4-tetrahydroisoquinolin-2-yl]-caproic acid hydrochloride]
IC50 (TXA2 receptors): 98 µM

O=C(O)CCCN1CCc2ccc(S(=O)(=O)Nc3ccc(Cl)cc3)cc2C1 [Example 15, 4-[7-(4-Chlorophenylsulphamoyl)-1,2,3,4-tetrahydroisoquinolin-2-yl]butyric acid]
IC50 (TXA2 receptors): 7.8 µM
